Measured values: patent US10800752B2, “Substituted naphtho[2,3-b]furans as water-soluble prodrugs for preventing and/or treating cancer” (BOSTON BIOMEDICAL, INC., priority 2015, dated 2020)

How the values were obtained:
[1] = Evaluation of a conversion rate to 2-acetylnaphtho[2,3-b]furan-4,9-dione in CD1 mouse plasma; assay type: in vitro ADME; conditions: 1 umol/L; for % Measurement value (conversion rate to 2-acetylnaphtho[2,3-b]furan-4,9-dione): CD1 mouse plasma, 37° C., incubation time 120 min; for % Measurement value of Activated form (conversion rate to 2-acetylnaphtho[2,3-b]furan-4,9-dione): CD1, mouse
Protocol: (§1) For test compounds, the decrease rate of the test compounds and the conversion rate thereof to 2-acetylnaphtho[2,3-b]furan-4,9-dione in human plasma, CD1 mouse plasma, and pH 7.4 phosphate buffer solution were measured.
(§2) Test compounds were incubated at the concentration of 1 umol/L in human plasma (cat. no. 12250210, COSMO BIO), CD1 mouse plasma (cat. no. AP3054, KAC), and phosphate buffer solution at 37° C., and removed at predetermined times (0, 5, 10, 30, 60, and 120 minutes). After protein-removing treatment was performed, they are analyzed with LC-MS. It should be noted that the protein-removing treatment used acetonitrile containing: 10% volume of 1 mol/L hydrochloric acid; 1% volume of 46% citric acid; and phenytoin as an internal standard.
(§3) The measurement condition of LC-MS is as described below. LC-MS condition column: Kinetex 2.6 u PFP 100 A 50×2.1 mm Column temperature: 40° C.
(§4) Mobile phase: A: 0.1% formic acid-containing water
(§5) • B: 0.1% formic acid-containing acetonitrile A/B(min): 95/5(0)→5/95(3)→5/95(4)→95/5(4.1)→95/5(6) Flow rate: 0.4 mL/min Detection: ESI (positive mode) Injection volume: 10 uL
Measurement values are calculated from the peak area ratio in LC-MS between an internal standard material, phenytoin and an active form, 2-acetylnaphtho[2,3-b]furan-4,9-dione, and are expressed in %.
In the same way as Example 6, the incubation time was set as 120 minutes later, and the conversion rate of each of various test compounds to 2-acetylnaphtho[2,3-b]furan-4,9-dione in human plasma, CD1 mouse plasma, and pH 7.4 phosphate buffer solution was measured. A series of the present compounds were confirmed to be converted to 2-acetylnaphtho[2,3-b]furan-4,9-dione in pH 7.4 phosphate buffer solution in addition to human plasma and CD1 mouse plasma. Therefore, a series of the test compounds of the present invention were confirmed to be converted to the activated form via a route other than an enzymatic conversion.

[2] = Evaluation of a conversion rate to 2-acetylnaphtho[2,3-b]furan-4,9-dione in pH 7.4 phosphate buffer solution; assay type: physicochemical; conditions: 1 umol/L, 37° C.; for % Measurement value (conversion rate to 2-acetylnaphtho[2,3-b]furan-4,9-dione): Phosphate buffer solution (pH 7.4); for % Measurement value of Activated form (conversion rate to 2-acetylnaphtho[2,3-b]furan-4,9-dione): formed from Example 6, phosphate buffer solution (pH 7.4)
Outline: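 Compounds at 1 umol/L were incubated at 37° C in human plasma, CD1 mouse plasma or pH 7.4 phosphate buffer, sampled up to 120 minutes, acid/acetonitrile-deproteinised and analysed by LC-MS (ESI positive). Conversion (%) derived from the peak area ratio of the active form to phenytoin internal standard.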

[3] = Solubility test; conditions: 50 mmol/L glycine buffer solution (pH 2.0), room temperature, 24 hours shaking
Protocol: A water-soluble prodrug was added into 50 mmol/L glycine buffer solution (pH 2.0). After shaking at room temperature for 24 hours, the mixture was filtered through a membrane filter, and then the filtrate was measured with HPLC.
The measurement condition of HPLC is as described below. HPLC condition column: Acquity UPLC BEH C18, 1.7 um, 50×2.1 mm
Mobile phase: A: 0.1% trifluoroacetic acid-containing water

[4] = Evaluation of a conversion rate to 2-acetylnaphtho[2,3-b]furan-4,9-dione in human plasma; assay type: in vitro ADME; conditions: 1 umol/L; for % Measurement value (conversion rate to 2-acetylnaphtho[2,3-b]furan-4,9-dione): Human plasma, 37° C., incubation time 120 min; for % Measurement value of Activated form (conversion rate to 2-acetylnaphtho[2,3-b]furan-4,9-dione): human
Protocol: as §1, §2, §3, §4, §5
In the same way as Example 6, the incubation time was set as 120 minutes later, and the conversion rate of each of various test compounds to 2-acetylnaphtho[2,3-b]furan-4,9-dione in human plasma, CD1 mouse plasma, and pH 7.4 phosphate buffer solution was measured.

Compound | % Measurement value (conversion rate to 2-acetylnaphtho[2,3-b]furan-4,9-dione) [1] | % Measurement value (conversion rate to 2-acetylnaphtho[2,3-b]furan-4,9-dione) ([2]; incubation time 120 min) | Solubility in pH 2.0 buffer solution [3] | % Measurement value (conversion rate to 2-acetylnaphtho[2,3-b]furan-4,9-dione) [4] | also measured
CC(=O)c1cc2c(OC(=O)NCCCNCC(=O)O)c3ccccc3c(O)c2o1.Cl [Example 77] | 70% | 66% | 0.5 mg/mL | 68% | –
CC(=O)c1cc2c(OC(=O)NCCCCCCCCN)c3ccccc3c(O)c2o1.Cl [Example 75] | 60% | 45% | 0.1 mg/mL | 79% | –
COC(=O)[C@@H](N)CNC(=O)Oc1c2ccccc2c(OC(=O)NC[C@H](N)C(=O)OC)c2oc(C(C)=O)cc12.Cl.Cl [Example 32] | 74% | 46% | >5.0 mg/mL | 81% | –
CC(=O)c1cc2c(O)c3ccccc3c(OC(=O)NCCNCC(=O)O)c2o1.Cl [Example 78] | 66% | 43% | 0.1 mg/mL | 54% | –
CC(=O)c1cc2c(OC(=O)NCCNCC(=O)O)c3ccccc3c(O)c2o1.Cl [Example 71] | 68% | 70% | 0.1 mg/mL | 61% | –
CC(=O)c1cc2c(o1)C(=O)c1ccccc1C2=O [Activated form, 2-acetylnaphtho[2,3-b]furan-4,9-dione, reference compound] | – | – | – | – | % Measurement value of Activated form (conversion rate to 2-acetylnaphtho[2,3-b]furan-4,9-dione) ([1]; 0 min): 0%; % Measurement value of Activated form (conversion rate to 2-acetylnaphtho[2,3-b]furan-4,9-dione) ([1]; 5 min): 23%; % Measurement value of Activated form (conversion rate to 2-acetylnaphtho[2,3-b]furan-4,9-dione) ([1]; 10 min): 31%; % Measurement value of Activated form (conversion rate to 2-acetylnaphtho[2,3-b]furan-4,9-dione) ([1]; 30 min): 63%; % Measurement value of Activated form (conversion rate to 2-acetylnaphtho[2,3-b]furan-4,9-dione) ([1]; 60 min): 67%; % Measurement value of Activated form (conversion rate to 2-acetylnaphtho[2,3-b]furan-4,9-dione) ([1]; 120 min): 76%; % Measurement value of Activated form (conversion rate to 2-acetylnaphtho[2,3-b]furan-4,9-dione) ([2]; incubation time 0 min): 0%; % Measurement value of Activated form (conversion rate to 2-acetylnaphtho[2,3-b]furan-4,9-dione) ([2]; incubation time 5 min): 20%; % Measurement value of Activated form (conversion rate to 2-acetylnaphtho[2,3-b]furan-4,9-dione) ([2]; incubation time 10 min): 29%; % Measurement value of Activated form (conversion rate to 2-acetylnaphtho[2,3-b]furan-4,9-dione) ([2]; incubation time 30 min): 55%; % Measurement value of Activated form (conversion rate to 2-acetylnaphtho[2,3-b]furan-4,9-dione) ([2]; incubation time 60 min): 61%; % Measurement value of Activated form (conversion rate to 2-acetylnaphtho[2,3-b]furan-4,9-dione) ([2]; incubation time 120 min): 78%; % Measurement value of Activated form (conversion rate to 2-acetylnaphtho[2,3-b]furan-4,9-dione) ([4]; 0 min): 0%; % Measurement value of Activated form (conversion rate to 2-acetylnaphtho[2,3-b]furan-4,9-dione) ([4]; 5 min): 24%; % Measurement value of Activated form (conversion rate to 2-acetylnaphtho[2,3-b]furan-4,9-dione) ([4]; 10 min): 31%; % Measurement value of Activated form (conversion rate to 2-acetylnaphtho[2,3-b]furan-4,9-dione) ([4]; 30 min): 48%; % Measurement value of Activated form (conversion rate to 2-acetylnaphtho[2,3-b]furan-4,9-dione) ([4]; 60 min): 64%; % Measurement value of Activated form (conversion rate to 2-acetylnaphtho[2,3-b]furan-4,9-dione) ([4]; 120 min): 71%
CC(=O)c1cc2c(OC(=O)NCC[C@H](N)C(=O)O)c3ccccc3c(OC(=O)NCC[C@H](N)C(=O)O)c2o1.Cl.Cl [Example 12] | 78% | 63% | – | 63% | –
CC(=O)c1cc2c(OC(=O)NCCCCN)c3ccccc3c(OC(=O)NCCCCN)c2o1.Cl.Cl [Example 13] | 50% | 13% | – | 95% | –
CC(=O)c1cc2c(OC(=O)NC3CCC(N)CC3)c3ccccc3c(OC(=O)NC3CCC(N)CC3)c2o1.Cl.Cl (centres unmarked) [Example 7] | 51% | 41% | – | 69% | –
CCNCCCCOC(=O)Oc1c2ccccc2c(OC(=O)OCCCCNCC)c2oc(C(C)=O)cc12.Cl.Cl [Example 28] | 85% | 34% | – | 73% | –
